pIC50: −log10 of the molar value.
Experiments:
Plasminogen [1] = biological target: T1, Plasminogen (Homo sapiens, UniProt P00747)
Serine protease 1 = Serine protease 1 (Homo sapiens, UniProt P07477)
Coagulation factor X = Coagulation factor X (Homo sapiens, UniProt P00742)
Description: In vitro inhibitory concentration required to inhibit Coagulation factor X by 50%

Prothrombin = Prothrombin (Homo sapiens, UniProt P00734)
[2] = biological target: Tissue-type plasminogen activator (Homo sapiens, UniProt P00750); assay: In vitro inhibitory concentration required to inhibit tissue plasminogen activator cleavage of the chromogenic substrate by 50%; Inactive
Plasminogen [3] = biological target: T1, Plasminogen; remark: listed apart in the source

Chain of Serine protease 1 (P07477 whole entry): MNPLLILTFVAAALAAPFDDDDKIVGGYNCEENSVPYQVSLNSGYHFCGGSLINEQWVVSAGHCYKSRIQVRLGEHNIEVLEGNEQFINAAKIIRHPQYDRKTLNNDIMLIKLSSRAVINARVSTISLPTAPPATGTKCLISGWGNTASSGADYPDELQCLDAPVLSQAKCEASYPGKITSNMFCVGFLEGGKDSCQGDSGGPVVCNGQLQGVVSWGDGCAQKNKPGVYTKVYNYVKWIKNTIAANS
T1 sequence (P00747 97-580 limits assumed): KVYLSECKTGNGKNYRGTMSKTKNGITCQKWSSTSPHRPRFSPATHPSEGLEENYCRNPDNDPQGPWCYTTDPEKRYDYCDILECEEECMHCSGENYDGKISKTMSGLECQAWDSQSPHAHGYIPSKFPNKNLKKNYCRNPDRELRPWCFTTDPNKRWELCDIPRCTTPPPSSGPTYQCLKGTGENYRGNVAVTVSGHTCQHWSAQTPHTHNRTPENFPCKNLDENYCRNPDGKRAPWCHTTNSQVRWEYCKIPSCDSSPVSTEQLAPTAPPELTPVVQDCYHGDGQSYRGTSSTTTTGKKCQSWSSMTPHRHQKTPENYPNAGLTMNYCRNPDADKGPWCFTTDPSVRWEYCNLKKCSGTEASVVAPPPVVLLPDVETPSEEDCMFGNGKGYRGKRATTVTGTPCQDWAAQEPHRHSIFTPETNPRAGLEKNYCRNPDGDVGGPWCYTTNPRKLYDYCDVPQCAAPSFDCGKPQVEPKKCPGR
T1 sequence (P00747 581-810 limits assumed): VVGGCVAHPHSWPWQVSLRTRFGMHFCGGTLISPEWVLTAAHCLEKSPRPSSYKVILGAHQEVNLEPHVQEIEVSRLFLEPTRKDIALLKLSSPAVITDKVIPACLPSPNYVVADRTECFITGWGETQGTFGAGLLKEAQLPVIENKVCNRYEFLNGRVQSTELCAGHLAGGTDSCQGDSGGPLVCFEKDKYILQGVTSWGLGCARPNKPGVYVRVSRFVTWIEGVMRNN
Chain of Tissue-type plasminogen activator (P00750 whole entry): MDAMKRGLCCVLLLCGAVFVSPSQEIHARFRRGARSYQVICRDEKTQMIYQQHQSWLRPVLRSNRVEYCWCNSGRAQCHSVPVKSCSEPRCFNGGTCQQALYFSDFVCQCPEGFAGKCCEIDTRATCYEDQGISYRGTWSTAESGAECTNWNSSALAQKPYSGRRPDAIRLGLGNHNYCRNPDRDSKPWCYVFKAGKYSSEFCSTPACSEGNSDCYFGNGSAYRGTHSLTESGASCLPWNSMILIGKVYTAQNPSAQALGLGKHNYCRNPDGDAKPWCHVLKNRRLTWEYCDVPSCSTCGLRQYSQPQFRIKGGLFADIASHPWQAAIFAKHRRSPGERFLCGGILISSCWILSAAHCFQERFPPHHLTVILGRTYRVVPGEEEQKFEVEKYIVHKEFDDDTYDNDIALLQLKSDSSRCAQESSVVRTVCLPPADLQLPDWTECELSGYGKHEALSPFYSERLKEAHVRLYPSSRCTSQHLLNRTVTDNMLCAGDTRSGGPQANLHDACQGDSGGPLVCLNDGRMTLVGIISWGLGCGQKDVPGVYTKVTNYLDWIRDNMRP
Chain of Coagulation factor X (P00742 41-179 limits assumed): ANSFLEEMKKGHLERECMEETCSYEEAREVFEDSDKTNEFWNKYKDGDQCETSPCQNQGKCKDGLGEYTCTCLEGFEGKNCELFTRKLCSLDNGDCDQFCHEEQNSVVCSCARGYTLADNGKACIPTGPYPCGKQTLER
Chain of Coagulation factor X (P00742 235-488 limits assumed): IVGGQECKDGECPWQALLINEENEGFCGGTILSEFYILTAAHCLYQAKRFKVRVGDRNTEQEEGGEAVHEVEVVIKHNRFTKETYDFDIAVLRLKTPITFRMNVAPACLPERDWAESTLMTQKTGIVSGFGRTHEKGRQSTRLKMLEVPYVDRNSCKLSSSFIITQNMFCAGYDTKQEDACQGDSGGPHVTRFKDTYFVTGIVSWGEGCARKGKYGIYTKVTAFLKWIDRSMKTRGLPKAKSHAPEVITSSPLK

Structure (SMILES) | pIC50 (Plasminogen [1]) | pIC50 (Serine protease 1) | pIC50 (Coagulation factor X) | pIC50 (Prothrombin) | IC50 [2] | IC50 (Plasminogen [3])
COC(=O)C[C@H](NS(=O)(=O)Cc1ccccc1)C(=O)N1CCCC1C(=O)N[C@H]1CCCN(C(=N)N)C1O (stereo partly specified) | 7.83 | 8.59 | 7.53 | 8.30 | – | –
CCCC(CCC)C(=O)N[C@@H](CC(=O)OC)C(=O)N1CCCC1C(=O)N[C@H]1CCCN(C(=N)N)C1O (stereo partly specified) | 6.50 | 8.87 | – | 8.96 | Not Active | –
N=C(N)N1CCC[C@H](NC(=O)C2CS[C@H]3CC[C@H](NS(=O)(=O)Cc4ccccc4)C(=O)N23)C1O (stereo partly specified) | 6.03 | 7.94 | < 5.60 | 7.79 | Not Active | –
N=C(N)N1CCC[C@H](NC(=O)CN2CCC[C@H](NS(=O)(=O)Cc3ccccc3)C2=O)C1O (stereo partly specified) | – | – | < 5.60 | – | Not Active | Not Active

Source: ChEMBL document CHEMBL1129832, “Rational design, synthesis, and serine protease inhibitory activity of a novel P1-argininal derivative featuring a conformationally constrained P2P3 bicyclic lactam moiety” (Bioorg Med Chem Lett, 1997)
